From ChEMBL document CHEMBL2407044, “Synthesis, Antiplasmodial Activity, and β-Hematin Inhibition of Hydroxypyridone-Chloroquine Hybrids” (ACS Med Chem Lett, 2013)
Calls of active or inactive are those of the source. The rule behind the calls is not given here.

Columns and labels:
KB = assay: Cytotoxicity against human KB cells after 72 hrs by Alamar blue assay; assay type: cell-based
[1] = Inhibition of beta-hematin formation after 60 mins relative to beta-hematin; assay type: functional
Plasmodium falciparum [2] = assay: Antiplasmodial activity against chloroquine-resistant Plasmodium falciparum W2 assessed as parasite survival after 2 days by YOYO-1 staining-based flow cytometric analysis; assay type: functional, organism-based; details: W2, 48 h
Plasmodium falciparum [3] = assay: Antiplasmodial activity against chloroquine-resistant Plasmodium falciparum K1 assessed as parasite growth inhibition after 24 hrs by [3H]-hypoxathine incorporation assay; assay type: functional, organism-based
Plasmodium falciparum [4] = assay: Antiplasmodial activity against chloroquine-sensitive Plasmodium falciparum 3D7 assessed as parasite growth inhibition after 24 hrs by [3H]-hypoxathine incorporation assay; assay type: functional, organism-based
[5] = Inhibition of beta-hematin formation at 10 times parental IC50 after 60 mins; assay type: functional

Row | Compound | IC50 (KB; Homo sapiens, KB, 72 h) | IC50 [1] | IC50 (Plasmodium falciparum [2]) | IC50 (Plasmodium falciparum [3]; Plasmodium falciparum, K1) | IC50 (Plasmodium falciparum [4]) | IC50 (KB; kb) | IC50 (Plasmodium falciparum [3]) | inhibition [5]
1 | CCc1c(O)c(=O)ccn1CCCNc1ccnc2cc(Cl)ccc12 | 55000 nM | 1.3 equiv | 540 nM | 380 nM | 120 nM |  |  | 
2 | COc1c(C)n(CCCCNc2ccnc3cc(Cl)ccc23)ccc1=O | 27000 nM | 0.75 equiv | 760 nM | 220 nM | 70 nM |  |  | 
3 | COc1c(C)n(CCCCCCNc2ccnc3cc(Cl)ccc23)ccc1=O | 47000 nM | 1.07 equiv | 90 nM | 2800 nM | 130 nM |  |  | 
4 | CCc1c(O)c(=O)ccn1CCCCNc1ccnc2cc(Cl)ccc12 | 76000 nM | 0.98 equiv | 160 nM | 270 nM | 50 nM |  |  | 
5 | CCc1c(O)c(=O)ccn1CCCCCCNc1ccnc2cc(Cl)ccc12 | 44000 nM | 0.49 equiv | 90 nM | 610 nM | 80 nM |  |  | 
6 | Cc1c(OCc2ccccc2)c(=O)ccn1CCCCCCNc1ccnc2cc(Cl)ccc12 | 158000 nM | 0.25 equiv | 390 nM | 4380 nM | 35700 nM |  |  | 
7 | CCc1c(OCc2ccccc2)c(=O)ccn1CCCCCCNc1ccnc2cc(Cl)ccc12 [listing 1 of 2 here] |  | 0.16 equiv | 20 nM |  |  | 4000 nM | 80 nM | 
8 | CCN(CC)CCCC(C)Nc1ccnc2cc(Cl)ccc12 (stereo not drawn) [CHLOROQUINE] | 34000 nM | 1.9 equiv |  |  |  |  |  | 
9 | Cc1c(O)c(=O)ccn1CCNc1ccnc2cc(Cl)ccc12 |  | 2.9 equiv | 280 nM | 32600 nM | 10800 nM |  |  | 
10 | CCCCCCCCn1ccc(=O)c(O)c1C |  |  |  | 1800 nM | 2380 nM |  |  | 
11 | CCc1c(OC)c(=O)ccn1CCCCNc1ccnc2cc(Cl)ccc12 |  | 1.71 equiv | 210 nM |  |  |  |  | 
12 | CCc1c(OC)c(=O)ccn1CCCCCCNc1ccnc2cc(Cl)ccc12 |  | 0.47 equiv | 220 nM |  |  |  |  | 
13 | CCc1c(OCc2ccccc2)c(=O)ccn1CCCCNc1ccnc2cc(Cl)ccc12 | 9000 nM | 0.19 equiv | 100 nM | 130 nM | 4 nM |  |  | 
14 | CCc1c(OCc2ccccc2)c(=O)ccn1CCNc1ccnc2cc(Cl)ccc12 | 51000 nM | 0.5 equiv | 2590 nM | 8430 nM | 950 nM |  |  | 
15 | COc1cc([C@@H]2c3cc4c(cc3[C@H](O)[C@H]3COC(=O)[C@H]23)OCO4)cc(OC)c1OC [PODOFILOX] | 0.7 nM |  |  |  |  |  |  | 
16 | CCc1c(OCc2ccccc2)c(=O)ccn1CCCCCCNc1ccnc2cc(Cl)ccc12 [listing 2 of 2 here] | 7000 nM |  |  | 100 nM | 10 nM |  |  | 
17 | Cc1c(OCc2ccccc2)c(=O)ccn1CCCCNc1ccnc2cc(Cl)ccc12 | 119000 nM | 0.27 equiv | 1120 nM | 2200 nM | 50 nM |  |  | 
18 | Cc1c(OCc2ccccc2)c(=O)ccn1C(C)C |  |  |  |  |  |  |  | inactive
19 | CCc1c(OCc2ccccc2)c(=O)ccn1CCCNc1ccnc2cc(Cl)ccc12 | 15000 nM | 0.41 equiv | 2320 nM | 71600 nM | 120 nM |  |  | 
20 | Cc1c(OCc2ccccc2)c(=O)ccn1CCCNc1ccnc2cc(Cl)ccc12 | 67000 nM | 0.49 equiv | 2150 nM | 3570 nM | 280 nM |  |  | 
21 | CCc1c(O)c(=O)ccn1CCNc1ccnc2cc(Cl)ccc12 |  | 1.1 equiv | 1240 nM | 890 nM | 400 nM |  |  | 
22 | Cc1c(OCc2ccccc2)c(=O)ccn1CCNc1ccnc2cc(Cl)ccc12 | 54000 nM | 0.93 equiv | 9930 nM | 3150 nM | 490 nM |  |  | 
23 | Cc1c(O)c(=O)ccn1CCCCCCNc1ccnc2cc(Cl)ccc12 | 4000 nM | 0.18 equiv | 70 nM | 160 nM | 390 nM |  |  | 
24 | Cc1c(OCc2ccccc2)c(=O)ccn1C |  |  |  |  |  |  |  | inactive
25 | CCCCCCCCn1ccc(=O)c(OCc2ccccc2)c1C |  |  |  |  |  |  |  | inactive
26 | CCCCCCn1ccc(=O)c(OCc2ccccc2)c1C |  |  |  |  |  |  |  | inactive
27 | Cc1c(O)c(=O)ccn1CCCCNc1ccnc2cc(Cl)ccc12 | 185000 nM | 0.66 equiv | 80 nM | 70 nM | 30 nM |  |  | 
